Results as given in US12583858B2 (Genentech, Inc., priority 2015, dated 2026).

Target: T1, TDO2 (Homo sapiens, UniProt P48775)
T1 construct: decreased levels of NFK in SW48 cells (high TDO expressing cells)
Experiment: TDO2 cell assay (NFK GreenScreen, SW48 cells)
Type: cell-based
Conditions: SW48 cells (high TDO expressing), 200 uM tryptophan, 24 hours; Table 3; read-out: TDO2 Cell Fluor EC50

T1 sequence (P48775 whole entry): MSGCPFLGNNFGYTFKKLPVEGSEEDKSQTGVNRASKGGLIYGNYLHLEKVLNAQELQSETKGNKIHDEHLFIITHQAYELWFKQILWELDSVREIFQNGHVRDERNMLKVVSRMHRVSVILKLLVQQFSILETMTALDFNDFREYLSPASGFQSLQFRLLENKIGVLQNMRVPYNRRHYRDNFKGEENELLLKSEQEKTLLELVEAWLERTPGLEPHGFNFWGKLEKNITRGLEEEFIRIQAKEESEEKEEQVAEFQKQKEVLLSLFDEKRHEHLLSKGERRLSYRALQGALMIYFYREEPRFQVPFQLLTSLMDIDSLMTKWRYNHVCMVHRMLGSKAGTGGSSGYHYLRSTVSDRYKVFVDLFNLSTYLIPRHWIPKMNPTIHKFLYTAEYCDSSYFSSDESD

SMILES	EC50
OC1C(C2c3ccccc3-c3cncn32)CC12CCOCC2 (single isomer, unassigned) [Example 57c]	400 nM
OC1C(C2c3ccccc3-c3cncn32)CC12CCOCC2 (single isomer, unassigned) [Example 57d]	> 25000 nM
OC1C(C2c3ccccc3-c3cncn32)CC12CCOCC2 (single isomer, unassigned) [Example 57e]	77 nM
OC1C(C2c3ccccc3-c3cncn32)CC12CCOCC2 (single isomer, unassigned) [Example 57f]	730 nM
OC1C(C2c3ccccc3-c3cncn32)CC12CCOCC2 (single isomer, unassigned) [Example 57g]	210 nM
OC1C(C2c3ccccc3-c3cncn32)CC12CCOCC2 (single isomer, unassigned) [Example 57h]	> 25000 nM
N#CCN1CCC(O)C(C2c3ccccc3-c3cncn32)C1 (single isomer, unassigned) [Example 58a]	360 nM
N#CCN1CCC(O)C(C2c3ccccc3-c3cncn32)C1 (single isomer, unassigned) [Example 58b]	> 25000 nM
N#CCN1CCC(O)C(C2c3ccccc3-c3cncn32)C1 (single isomer, unassigned) [Example 58c]	20000 nM
N#CCN1CCC(O)C(C2c3ccccc3-c3cncn32)C1 (single isomer, unassigned) [Example 58d]	> 25000 nM
Cc1cc2c(cn1)C(O)C(C1c3ccccc3-c3cncn31)C2 (single isomer, unassigned) [Example 59c]	1600 nM
Cc1cc2c(cn1)C(O)C(C1c3ccccc3-c3cncn31)C2 (single isomer, unassigned) [Example 59d]	> 25000 nM
NC(=O)c1ccc2c(c1)CCC(C1c3ccccc3-c3cncn31)C2O (single isomer, unassigned) [Example 60a]	480 nM
NC(=O)c1ccc2c(c1)CCC(C1c3ccccc3-c3cncn31)C2O (single isomer, unassigned) [Example 60b]	4100 nM
NC(=O)c1ccc2c(c1)CCC(C1c3ccccc3-c3cncn31)C2O (single isomer, unassigned) [Example 60d]	740 nM
CC1(O)CCOCC1C1c2ccccc2-c2cncn21 (single isomer, unassigned) [Example 61a]	570 nM
CC1(O)CCOCC1C1c2ccccc2-c2cncn21 (single isomer, unassigned) [Example 61b]	2600 nM
CC1(O)CCOCC1C1c2ccccc2-c2cncn21 (single isomer, unassigned) [Example 61c]	9100 nM
CC1(O)CCOCC1C1c2ccccc2-c2cncn21 (single isomer, unassigned) [Example 61d]	21000 nM
N#Cc1ccc2c(c1)CCC(C1c3ccccc3-c3cncn31)C2O (single isomer, unassigned) [Example 62a]	10000 nM
N#Cc1ccc2c(c1)CCC(C1c3ccccc3-c3cncn31)C2O (single isomer, unassigned) [Example 62b]	310 nM
N#Cc1ccc2c(c1)CCC(C1c3ccccc3-c3cncn31)C2O (single isomer, unassigned) [Example 62c]	6600 nM
N#Cc1ccc2c(c1)CCC(C1c3ccccc3-c3cncn31)C2O (single isomer, unassigned) [Example 62d]	82 nM
N#Cc1ccc2c(c1)CCC(C1c3ccccc3-c3cncn31)C2O (single isomer, unassigned) [Example 62e]	520 nM

SMILES	EC50
N#Cc1ccc2c(c1)CCC(C1c3ccccc3-c3cncn31)C2O (single isomer, unassigned) [Example 62f]	2500 nM
N#Cc1ccc2c(c1)CCC(C1c3ccccc3-c3cncn31)C2O (single isomer, unassigned) [Example 62g]	14000 nM
OC1c2ncccc2CCC1C1c2ccccc2-c2cncn21 (single isomer, unassigned) [Example 63b]	19000 nM
CS(=O)(=O)N1CC[C@@H]([C@@H]2c3ccccc3-c3cncn32)[C@H](O)C1 (single isomer, unassigned) [Example 64b]	87 nM
CS(=O)(=O)N1CC[C@@H]([C@H]2c3ccccc3-c3cncn32)[C@H](O)C1 (single isomer, unassigned) [Example 64d]	2500 nM
CC1(C)COCC(C2c3ccccc3-c3cncn32)C1O (single isomer, unassigned) [Example 66b]	190 nM
CC1(C)COCC(C2c3ccccc3-c3cncn32)C1O (single isomer, unassigned) [Example 66c]	4800 nM
CC1(C)COCC(C2c3ccccc3-c3cncn32)C1O (single isomer, unassigned) [Example 66d]	2000 nM
CC1(C)COCC(C2c3ccccc3-c3cncn32)C1O (single isomer, unassigned) [Example 66f]	160 nM
CC1(C)COCC(C2c3ccccc3-c3cncn32)C1O (single isomer, unassigned) [Example 66g]	71 nM
OC1CC2(CCC2)C1C1c2ccccc2-c2cncn21 (single isomer, unassigned) [Example 67a]	1200 nM
OC1CC2(CCC2)C1C1c2ccccc2-c2cncn21 (single isomer, unassigned) [Example 67b]	> 25000 nM
OC1CC2(CCC2)C1C1c2ccccc2-c2cncn21 (single isomer, unassigned) [Example 67c]	1100 nM
OC1CC2(CCC2)C1C1c2ccccc2-c2cncn21 (single isomer, unassigned) [Example 67d]	240 nM
OC1CC2(CCC2)C1C1c2ccccc2-c2cncn21 (single isomer, unassigned) [Example 67e]	44 nM
OC1CC2(CCC2)C1C1c2ccccc2-c2cncn21 (single isomer, unassigned) [Example 67f]	46 nM
OC1CC2(CCC2)C1C1c2ccccc2-c2cncn21 (single isomer, unassigned) [Example 67g]	2400 nM
OC1CC2(CCC2)C1C1c2ccccc2-c2cncn21 (single isomer, unassigned) [Example 67h]	16000 nM
OC1C(C2c3ccccc3-c3cncn32)CCC12CCOCC2 (single isomer, unassigned) [Example 68b]	7400 nM
OC1C(C2c3ccccc3-c3cncn32)CCC12CCOCC2 (single isomer, unassigned) [Example 68c]	> 25000 nM
OC1C(C2c3ccccc3-c3cncn32)CCC12CCOCC2 (single isomer, unassigned) [Example 68d]	> 25000 nM
OC1C(C2c3ccccc3-c3cncn32)CCC12CCOCC2 (single isomer, unassigned) [Example 68e]	270 nM
OC1C(C2c3ccccc3-c3cncn32)CCC12CCOCC2 (single isomer, unassigned) [Example 68f]	120 nM
OC1C(C2c3ccccc3-c3cncn32)CCC12CCOCC2 (single isomer, unassigned) [Example 68g]	> 25000 nM

SMILES	EC50
OC1C(C2c3ccccc3-c3cncn32)CCC12CCOCC2 (single isomer, unassigned) [Example 68h]	> 25000 nM
OC1COCCC1C1c2c(Cl)cccc2-c2cncn21 (single isomer, unassigned) [Example 69-1a]	> 25000 nM
OC1COCCC1C1c2c(Cl)cccc2-c2cncn21 (single isomer, unassigned) [Example 69-1b]	> 25000 nM
OC1COCCC1C1c2c(Cl)cccc2-c2cncn21 (single isomer, unassigned) [Example 69-1c]	> 25000 nM
OC1COCCC1C1c2c(Cl)cccc2-c2cncn21 (single isomer, unassigned) [Example 69-1d]	4600 nM
OC1CCOCC1C1c2c(Cl)cccc2-c2cncn21 (single isomer, unassigned) [Example 69a]	> 25000 nM
OC1CCOCC1C1c2c(Cl)cccc2-c2cncn21 (single isomer, unassigned) [Example 69b]	> 25000 nM
OC1CCOCC1C1c2c(Cl)cccc2-c2cncn21 (single isomer, unassigned) [Example 69c]	11000 nM
OC1CCOCC1C1c2c(Cl)cccc2-c2cncn21 (single isomer, unassigned) [Example 69d]	> 25000 nM
O=S(=O)(C1CC1)N1CC[C@@H](O)[C@H]([C@H]2c3ccccc3-c3cncn32)C1 (single isomer, unassigned) [Example 70a]	> 25000 nM
O=S(=O)(C1CC1)N1CC[C@@H](O)[C@H]([C@H]2c3ccccc3-c3cncn32)C1 (single isomer, unassigned) [Example 70b]	1100 nM
O=S(=O)(C1CC1)N1CC[C@@H](O)[C@H]([C@@H]2c3ccccc3-c3cncn32)C1 (single isomer, unassigned) [Example 70c]	> 25000 nM
O=S(=O)(C1CC1)N1CC[C@@H](O)[C@H]([C@@H]2c3ccccc3-c3cncn32)C1 (single isomer, unassigned) [Example 70d]	> 25000 nM
OC1c2cnccc2CC1C1c2ccccc2-c2cncn21 (single isomer, unassigned) [Example 71a]	17000 nM
OC1c2cnccc2CC1C1c2ccccc2-c2cncn21 (single isomer, unassigned) [Example 71aa]	> 25000 nM
OC1c2cnccc2CC1C1c2ccccc2-c2cncn21 (single isomer, unassigned) [Example 71b]	630 nM
OC1c2cnccc2CC1C1c2ccccc2-c2cncn21 (single isomer, unassigned) [Example 71bb]	490 nM
OC1c2cnccc2CC1C1c2ccccc2-c2cncn21 (single isomer, unassigned) [Example 71c]	> 25000 nM
OC1c2cnccc2CC1C1c2ccccc2-c2cncn21 (single isomer, unassigned) [Example 71d]	1600 nM
OC1c2cnccc2CC1C1c2ccccc2-c2cncn21 (single isomer, unassigned) [Example 71e]	11000 nM
OC1c2cnccc2CC1C1c2ccccc2-c2cncn21 (single isomer, unassigned) [Example 71f]	> 25000 nM
OC1CC2(CC2)C1C1c2ccccc2-c2cncn21 (single isomer, unassigned) [Example 72a]	6600 nM
